Measurements reported in patent US9422318B2, “Epoxyeicosatrienoic acid analogs and methods of making and using the same” (THE MEDICAL COLLEGE OF WISCONSIN, INC., priority 2011, dated 2016).
Where two headings read alike, the source gives them in different places.

Assays:
bovine coronary artery = test: Vasorelaxant activity in bovine coronary artery rings; settings: for Vascular Relax. % (10 μM): rings precontracted with U-46619, 100% relaxation = basal pre-U-46619 tension; for EC50: Bos taurus, bovine coronary artery rings precontracted with U-46619, read-out: Vascular Relax. EC50
Description: Vasorelaxant activity was measured in bovine coronary artery. Bovine hearts were obtained and the left anterior descending coronary artery was dissected and cleaned of connective tissue. Vessels of 1 mm diameter were cut into rings of 3 mm width as previously described (3, 27, 39). […] The vessels were suspended from a pair of stainless steel hooks in a 6-ml water jacketed organ chamber. […] One hook was anchored to a steel rod and the other hook to a force transducer (model FT-03C; Grass Instruments, West Warwick, R.I.). Tension of the vessel was measured by an ETH-400 bridge amplifier, and the data were acquired with a MacLab 8e analog-to-digital converter and MacLab software version 3.5.6 (AD Instruments, Milford, Mass.) and stored on a Macintosh computer for subsequent data analysis.
Basal tension was set at the length-tension maximum of 3.5 g and equilibrated for 1.5 h. KCl (40 mM) was added to the chamber until reproducible maximal contractions were maintained. […] Cumulative additions of compounds were added to the chamber. Between concentration-response curves, the chambers were rinsed with fresh Krebs buffer, 40 mM KCl was administered to determine the maximum contraction, and the vessels were rinsed. Consecutive concentration-response curves were performed with 14,15-EET followed by a concentration-response curve to a compound. The experiment was always repeated with the order of the agonists reversed. […] The relaxation was plotted versus compound concentration and the EC50 determined utilizing statistical software.

Human recombinant sEH = Human recombinant sEH (Homo sapiens (Human), UniProt P34913); test: Soluble epoxide hydrolase inhibition (PHOME fluorescent substrate); assay type: biochemical
Human recombinant sEH, sequence (P34913 whole entry): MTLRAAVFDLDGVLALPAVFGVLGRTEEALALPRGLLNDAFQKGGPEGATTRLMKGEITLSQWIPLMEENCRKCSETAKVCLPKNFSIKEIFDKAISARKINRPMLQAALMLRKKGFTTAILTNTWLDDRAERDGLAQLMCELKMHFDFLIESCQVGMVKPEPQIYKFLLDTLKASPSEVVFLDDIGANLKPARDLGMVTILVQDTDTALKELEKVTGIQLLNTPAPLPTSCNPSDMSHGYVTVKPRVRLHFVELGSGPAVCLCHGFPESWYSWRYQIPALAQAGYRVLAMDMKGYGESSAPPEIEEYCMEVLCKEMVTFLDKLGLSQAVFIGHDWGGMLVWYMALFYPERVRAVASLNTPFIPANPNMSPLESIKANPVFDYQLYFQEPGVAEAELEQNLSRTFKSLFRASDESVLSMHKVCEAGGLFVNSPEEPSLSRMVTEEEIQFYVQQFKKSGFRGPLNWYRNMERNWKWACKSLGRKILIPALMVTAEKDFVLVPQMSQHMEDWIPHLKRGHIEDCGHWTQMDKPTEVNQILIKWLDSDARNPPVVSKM
Description: Compounds were tested for their ability to inhibit recombinant soluble epoxide hydrolase (sEH) protein. The assay utilizes (3-Phhenyl-oxiranyl)-acetic acid cyano-(6-methoxy-naphthalen-2-yl)-methyl ester (PHOME), a sensitive substrate for sEH that can be used to monitor the activity of both human and murine enzymes. […] Human recombinant sEH was incubated with substrate and compounds ranging in concentration from 0.1 to 1000 nM.

[1] = system: Spontaneously Hypertensive Rats (SHR); test: Telemetry blood pressure and heart rate in spontaneously hypertensive rats; assay type: in vivo, rat
Source text: To accurately detect changes in blood pressure and heart rate, telemetry transmitters (Data Sciences Inc., St. Paul, Minn.) were implanted in rats one week prior to the experimental period according to manufacturer's specifications while under pentobarbital anesthesia. In brief, an incision was made to expose the femoral artery that was occluded to allow insertion of the transmitter catheter. The catheter was secured in place with tissue glue and the transmitter body was sutured in place and the incision line was closed. Rats were allowed to recover from surgery and were returned to individual housing. A baseline arterial pressure was recorded for prior to the experimental period. Mean arterial pressure was continuously recorded throughout the experimental period.
Telemetry transmitters were implanted into male SHR as described. After the surgical recovery period, baseline mean arterial pressure was recorded. In this series of experiments, EET analogs were administered by osmotic pump (2 mg/d, i.p.) and blood pressure was continuously monitored.

[2] = system: cisplatin-induced nephrotoxicity in Wistar-Kyoto (WKY) rats; test: Cisplatin-induced nephrotoxicity in rats; assay type: in vivo, rat
Source text: Experiments were approved and carried out according to the guidelines of the Institutional Animal Care and Use Committee, Medical College of Wisconsin, Milwaukee, USA. Male Wistar-Kyoto (WKY) rats weighing 180-200 g (Charles River, Mass., USA). All animals were kept in a temperature-controlled environment with a 12-h light/dark cycle and were allowed free access to food and water at all times. An acclimatization period of 6 days was allowed for the rats before experimentation. The rats were assigned into four groups. […] Rats received drinking water ad libitum for seven days and on day 7 DMSO (Sigma Aldrich, St. Louis, Mo., USA) was administered (300-500 μl i.p.). […] These rats are pretreated with the EET analog […].) for seven days in drinking water and then on day 7 administered CP as a single injection (7 mg/kg i.p.) followed by another five days treatment with EET-A. […] One day before the rats were sacrificed, urine of each rat was collected over a 24-h period, and the volume was measured. Five days after CP or DMSO administration, rats were anesthetized for blood sample collection followed by euthanasia and tissue collection. Urine and plasma samples were kept frozen at -80° C. until analyzed. The kidneys were removed, washed with physiological saline and stored at -80° C. until used for RT-PCR analysis, thiobarbituric acid reactive substance (TBARS) measurement and caspase 3 activity assay. […] The levels of blood urea nitrogen (BUN) (BioAssay Systems, Hayward, Calif., USA) and serum creatinine (Cayman Chemical Company, Ann Arbor, Mich., USA) were measured spectrophotometrically using commercial kits. Urinary content of creatinine and protein were measured using commercial kits (Cayman Chemical Company, Ann Arbor, Mich., USA), and the activity of urinary N-acetyl-b-glucosaminidase (NAG) in the urine was measured by a kit from Diazyme (Diazyme Laboratories, Poway, Calif., USA). While urine content of kidney injury molecule-1 (KIM-1) was measured using ELISA (R&D Systems, Inc. Minneapolis, Minn., USA). Malondialdehyde (MDA) is a thiobarbituric acid reactive substance (TBARS) that is formed as an end-product of lipid peroxidation and serves as an important index of oxidative stress. […] Using a commercially available kit (Cayman Chemical Company, Ann Arbor, Mich., USA), MDA was measured spectrophotometrically after reaction with thiobarbituric acid. […] Louis, Mo., USA). Kidney homogenate was prepared with a lysis Buffer (50 mM HEPES, pH 7.4, with 5 mM CHAPS and 5 mM DTT). […] The caspase 3 activity is expressed as nmol of AMC/min/μL. Real-Time analysis was carried out to assess the expression of oxidative (gp91phox, NOX1, SOD1, SOD2, SOD3), inflammatory (TNF-α, IL-6, apoptotic (Bax, Bak, Bcl-2) and endoplasmic reticulum stress (GRP78, caspase 12) related genes in the kidney. Total RNA was isolated from kidney homogenate using TRIzol LS reagents (Invitrogen Life Technologies, Carlsbad, Calif., USA) according to the manufacturer's instructions. The isolated RNA was treated with RNase-free DNase (Invitrogen, Carlsbad, Calif., USA) to remove traces of genomic DNA contamination. The mRNA samples were quantified by spectrophotometry at 260 nm and 1 μg of total RNA was reverse-transcribed to cDNA using iScriptTM Select cDNA Synthesis Kit (Bio-Rad, Hercules, Calif., USA). The target gene expression was quantified by iScript One-Step RT-PCR Kit with SYBR green using MyiQTM Single Color Real-Time PCR Detection System (Bio-Rad Laboratories, Hercules, Calif., USA). Each amplified sample in all wells was analyzed for homogeneity using dissociation curve analysis using iQ5 Optical System Software, Version 2.1 (Bio-Rad Laboratories, Hercules, Calif., USA). […] In analyzing the relative expression of the target genes, the Ct values were normalized to a housekeeping gene (pgk1). Statistical analyses were carried out for at least 5-7 experimental samples in each experimental group. Primers used in this study were designed based on several earlier reports. […]

[3] = human recombinant sEH, PHOME substrate, 0.1 to 1000 nM, read-out: sEHi IC50

`CCCCCNC(=O)NCCCC/C=C\CCCCCCC(=O)N[C@@H](CC(=O)O)C(=O)O` (stereo in doubt) [Compound 7, (S)-2-(13-(3-n-Pentylureido)tridec-8(Z)-enamido)succinic acid] was tested, and the “Vascular Relax. % (10 μM)” value (bovine coronary artery) was 91%.

With `CCCCCCC(=O)N(CCCC/C=C\CCCCCCC(=O)OCCOCCOCCO)C(C)C` [Compound 1, 2-(2-(2-Hydroxyethoxyl)ethoxy)ethyl 13-(N-isopropylheptanamido)tridec-8(Z)-enoate] the “Vascular Relax. % (10 μM)” value (bovine coronary artery) was 86% and the EC50 (bovine coronary artery) was 2900 nM.

`CCCCCNC(=O)NCCCC/C=C\CCCCCCC(=O)OCCOCCOCCO` [Compound 2, 2-(2-(2-Hydroxyethoxyl)ethoxy)ethyl 13-(3-n-pentylureido)tridec-8(Z)-enoate] was tested, and the “Vascular Relax. % (10 μM)” value (bovine coronary artery) was 72% and the EC50 (bovine coronary artery) was 5100 nM.

In the case of `CCCCNC(=O)C(=O)NCCCC/C=C\CCCCCCC(=O)OCCOCCOCCO` [Compound 3, 2-(2-(2-Hydroxyethoxyl)ethoxy)ethyl13-(2-(n-butylamino)-2 oxoacetamido)tridec-8(Z)-enoate], the “Vascular Relax. % (10 μM)” value (bovine coronary artery) is reported as 104% and the EC50 (bovine coronary artery) is reported as 1500 nM.

`CCCCCNC(=O)NCCCC/C=C\CCCCOCC(=O)O` [Compound 4, 2-(10-(3-n-Pentylureido)dec-5(Z)-enyloxy)acetic acid] was tested, and the “Vascular Relax. % (10 μM)” value (bovine coronary artery) was 49%.

For `CCCCCCC(=O)N(CCCC/C=C\CCCCCCC(=O)NCC(=O)O)C(C)C` [Compound 5, 2-(13-(N-Isopropylheptanamido)tridec-8(Z)-enamido)acetic acid], the IC50 (Human recombinant sEH; [3]) was > 500 nM and the “Vascular Relax. % (10 μM)” value (bovine coronary artery) was 95%.

In the case of `CCCCCN(C)C(=O)N(C)CCCC/C=C\CCCCCCC(=O)NCC(=O)O` [Compound 6, 2-(13-(1,3-Dimethyl-3-n-pentylureido)tridec-8(Z)-enamido)acetic acid], the “Vascular Relax. % (10 μM)” value (bovine coronary artery) is reported as 92%.

`CCCCCNC(=O)NCCCC/C=C\CCCCCCC(=O)NS(=O)(=O)c1ccccc1` [Compound 8, 13-(3-n-Pentylureido)-N-(phenylsulfonyl)tridec-8(Z)-enamide] was tested, and the “Vascular Relax. % (10 μM)” value (bovine coronary artery) was 73%.

With `CCCCCNC(=O)NCCCC/C=C\CCCCCCC(=O)NS(C)(=O)=O` [Compound 9, N-(Methylsulfonyl)-13-(3-n-pentylureido)tridec-8(Z)-enamide] the “Vascular Relax. % (10 μM)” value (bovine coronary artery) was 61%.

`CCCCCNC(=O)NCCCC/C=C\CCCCCCP(=O)([O-])[O-].[Na+].[Na+]` [Compound 10] was tested, and the “Vascular Relax. % (10 μM)” value (bovine coronary artery) was 71%.

In the case of `CCCCCNC(=O)NCCCC/C=C\CCCCCCS(=O)(=O)[O-].[Na+]` [Compound 11], the “Vascular Relax. % (10 μM)” value (bovine coronary artery) is reported as 63%.

With `CCCCCCC(=O)N(CCCC/C=C\CCCCCCc1nnn[nH]1)C(C)C` [Compound 19] the IC50 (Human recombinant sEH; [3]) was > 500 nM and the “Vascular Relax. % (10 μM)” value (bovine coronary artery) was 74%.

Molecule `CCCCCNC(=O)NCCCC/C=C\CCCCCCc1nnn[nH]1` [Compound 20] has a heart rate ([1]; 2 mg/d i.p., vehicle 331±17.0) of 325±11.0 BPM.

In the case of `CCCCNC(=O)C(=O)NCCCC/C=C\CCCCCCc1nnn[nH]1` [Compound 21], the “Vascular Relax. % (10 μM)” value (bovine coronary artery) is reported as 96%.

`CCCCCNC(=O)NCCCC/C=C\CCCCCCCc1nnn[nH]1` [Compound 22, 1-(13-(1H-Tetrazol-5-yl)tridec-5(Z)-enyl)-3-n-pentylurea] was tested, and the “Vascular Relax. % (10 μM)” value (bovine coronary artery) was 110%.

With `CCCCCNC(=O)NCCCC/C=C\CCCCCCc1noc(=O)[nH]1` [Compound 23] the “Vascular Relax. % (10 μM)” value (bovine coronary artery) was 89%.

Molecule `CCCCCCC(=O)N(CCCC/C=C\CCCCCCC1=NOS(=O)N1)C(C)C` (stereo not shown) [Compound 26] has a blood pressure ([1]; 2 mg/d i.p. osmotic pump, after two weeks of treatment, vehicle 141±3.0) of 150±5.0 mmHg.

In the case of `CCCCCNC(=O)NCCCC/C=C\CCCCCCc1noc(=S)[nH]1` [Compound 28], the “Vascular Relax. % (10 μM)” value (bovine coronary artery) is reported as 93%.

In the case of `CCCCCNC(=O)NCCCC/C=C\CCCCCCc1nsc(=O)[nH]1` [Compound 29], the “Vascular Relax. % (10 μM)” value (bovine coronary artery) is reported as 54%.

`CCCCCCC(=O)N(CCCCCOc1cccc2sc(NC(C)=O)nc12)C(C)C` [Compound 30, N-(5-(2-Acetamidobenzo[d]thiazol-4-yloxy)pentyl)-N-isopropylheptanamide] was tested, and the IC50 (Human recombinant sEH; read-out: SEHi activity IC50) was > 500 nM, the IC50 (Human recombinant sEH; read-out: sEHi IC50) was > 500 nM and the “Vascular Relax. % (10 μM)” value (bovine coronary artery) was 96%. For the same molecule, the “start of blood pressure lowering” value ([1]; effect maintained until end of two-week treatment) was “within four days”.

In the case of `CCCCCNC(=O)NCCCCCOc1cccc2sc(NC(C)=O)nc12` [Compound 31, N-(4-(5-(3-n-Pentylureido)pentyloxy)benzo[d]thiazol-2-yl)acetamide], the “Vascular Relax. % (10 μM)” value (bovine coronary artery) is reported as 73%.

With `CCCCNC(=O)C(=O)NCCCCCOc1cccc2sc(NC(C)=O)nc12` [Compound 32, N^1-(5-(2-Acetamidobenzo[d]thiazol-4-yloxy)pentyl)-N^2-n-butyloxalamide] the IC50 (Human recombinant sEH; [3]) was > 500 nM and the “Vascular Relax. % (10 μM)” value (bovine coronary artery) was 96%.

With `CCCCCCC(=O)N(CCCCCOc1cccc2sc(NC(=O)C(C)(C)C)nc12)C(C)C` [EET-B, N-Isopropyl-N-(5-(2-pivalamidobenzo[d]thiazol-4-yloxy)pentyl)heptanamide] the “kidney TBARS formation” value ([2]; 10 mg/kg/d p.o., vehicle 16±2) was 8 ± 1 µmol/g, the “reductions in renal mRNA expressions of inflammatory markers (TNF-α, IL-6, interleukin-1β)” value ([2]; cisplatin-administered rats) was 40-60% and the proteinuria ([2]; cisplatin-administered rats, vehicle 53±5) was 32 ± 3 mg/day. The “reductions in the elevated levels of serum creatinine and BUN” value ([2]; five days after cisplatin, vs. vehicle) was 30-50%, the NAG ([2]; urinary, 10 mg/kg/d p.o., vehicle 3.0±0.6) was 0.6±0.2 U/d and the KIM-1 ([2]; urinary, 10 mg/kg/d p.o., vehicle 296±94) was 57 ± 13 ng/day.
